Measured values reported in patent US20090056397A1, “NITROGEN CONTAINING FERTILIZER FOR PLANT GROWTH” (SweTree Technologies AB, priority 2000, published 2009).
Where two headings read alike, the source gives them in different places. Each block holds one molecule with its values, some of them ahead of it.

Key:
[1] = system: pine plants; test: Cultivation trials with pine plants in peat using various nitrogen sources; format: in vivo; conditions: 59 days; for change in growth of the pine plants on charge increase from three to ten millimoles per litre: nitrogen 3 mM to 10 mM; for growth of the pine plants (mean dry weight), ranking of the nitrogen sources: greenhouse 20° C., nitrogen 1, 3 and 10 mM, FIG. 1
Description: The cultivation trials presented below were carried out over a time period of 59 days in a greenhouse that was kept at a constant temperature of 20° C. Lighting was kept at 150 micromole light per square meter (m^2) and second (s). The lamps used to this end were Philips Powertone SON-T+400 Watt. 720 pine seeds were sown in pots that contained 0.5 litre unfertilized (but weakly […] five seeds per pot. The pots were plastic pots that included typically four small holes in the bottom of the pot. […] Fertilizer was administered on Monday and Tuesday of each week and the seeds, and later the seedlings or shoots, were watered each Sunday. The nutrient mixture and the water were both brought a pH of 5.0 with hydrochloric acid. Both the nutrient mixture and the water were administered manually to each pot with the aid of so-called bird pipette having a capacity of one decilitre. […] Eight different nutrient mixtures were tested and the nitrogen for each nutrient mixture was charged in three different concentrations, namely concentrations of one millimole per litre (1 mM), three millimole per litre (3 mM) and ten millimole per litre (10 mM). Six pots, and therewith thirty plants, were used for each nutrient mixture and each concentration, giving a total of 144 pots. […] Further dilution was required to obtain respective concentrations of three millimole and one millimole. The remaining seven nutrient mixtures were obtained, by preparing a stock solution that coincides totally with the before described commercial product but with the exception that the nitrogen source in the form of 61.5% nitrogen in nitrate form and 38.5% nitrogen in ammonium form was excluded. […] Each nutrient mixture based on the latter two nitrogen sources were prepared and have been given the designation +(plus) in the following. The addition is that the stock solution has been charged with twice the conventional amount of both potassium and magnesium. As those skilled in this art will realise, this has been done because a significant increase in the amount of ammonium nitrogen at the cost of the amount of nitrate nitrogen may result in a potassium and magnesium deficiency from the nutrient aspect. It will be noted that with regard to the inventive fertilizer, i.e. the basic protein amino acid arginine that contains four nitrogen atoms, the concentration has been calculated on the basis of one nitrogen atom, which means that the actual addition of the acid calculated in grams per litre is comparatively low or very low. At the end of the cultivation trials, the thirty pine plans in each trial series were taken up and their dry weight determined in grams. […] The sign I stand for the standard error defined as the standard deviation (which is a well defined term to describe the spread between tests) divided by the square root of the number of samples, in this case thirty samples.

[2] = system: spruce plants; test: Cultivation trials with spruce plants in peat using various nitrogen sources; format: in vivo; conditions: 59 days
Source text: 720 spruce seeds were sown in peat at the same time as and in parallel with the above described trials. The trials carried out on spruce seeds and on spruce plants stemming from the seed were identical to the earlier described trials. […] The standard deviation is also shown in this case.

[3] = for Retention % (adsorption or retention of the chemicals in the peat): 0.2 millimole chemical per gram peat, 5 millimolar solution, one hour at room temperature, mean of three tests, HPLC of liquid phase; for amount of supplied chemical found in the liquid (water) phase: same test as the retention, liquid phase above the peat
Description: A given amount of peat of the same kind as that used in the cultivation trials and whose properties have been given above was dried in an oven at a temperature of 60° C. for 20 hours. […] Portions of this peat corresponding to 0.25 grams were inserted into nine test tubes. 5 ml water was delivered to each test tube, this water having been purified in filters from the company Millipore. The test tubes and their contents were then allowed to stand at room temperature for 20 hours, so that the peat would become wet through.
The aforesaid three chemicals, each in solid state, were weighed into three equal portions. Each portion was dissolved in 5 ml water that had been purified in the before described manner. The amount or weight of the substance was such as to obtain a substance concentration of 5 millimolar.
Each of the nine chemical solutions was delivered to a respective test tube that contained water-drenched peat. The amount of chemical added was 0.2 millimole per gram peat in all cases. Subsequent to supplying said liquid, each test tube was shaken by hand and thereafter allowed to stand at room temperature for one hour. The materials in the test tubes layered, such that the lowermost third contained a substantially clear liquid phase and the remainder of the tube contained liquid-drenched peat. A pipette was inserted into the test tube down to approximately midway of the liquid phase. About 1.5 millilitres of liquid was drawn off through the pipette and analysed with respect to its chemical content with the aid of HPLC-chromatography (HPLC=High Performance Liquid Chromatography).
As evident from the foregoing, three similar tests were carried out for each chemical.

Compound: Cl.N [Ammonium (NH4^+), ammonium chloride]
change in growth of the pine plants on charge increase from three to ten millimoles per litre [1]: catastrophic reduction in growth | growth of the pine plants at a charge of three millimoles per litre ([1]; nitrogen 3 mM): sufficiently good growth | state of the spruce plants at the end of the trial (toxicity limit) ([2]; nitrogen charge of ten millimoles per litre): dead at the end of the trial | Retention % (adsorption or retention of the chemicals in the peat) [3]: 28.0% | Retention % (adsorption or retention of the chemicals in the peat) ([3]; listed as ammonium): 28% | amount of supplied chemical found in the liquid (water) phase [3]: more than 70%

Compound: N=C(N)NCCC[C@H](N)C(=O)O [Arginine, arginine]
growth of the pine plants (mean dry weight), ranking of the nitrogen sources [1]: best growth | growth of the pine plants with increase in the nitrogen addition ([1]; nitrogen 1 to 3 to 10 mM): increased constantly with an increase in the nitrogen addition | growth of the spruce plants with increased nitrogen charges ([2]; nitrogen 1 to 3 to 10 mM): constantly increased growth | Retention % (adsorption or retention of the chemicals in the peat) [3]: 89.1% | Retention % (adsorption or retention of the chemicals in the peat) ([3]; listed as arginine): ~90% | amount of supplied chemical found in the liquid (water) phase [3]: ~11%

Retention % (adsorption or retention of the chemicals in the peat) [3]: −1.9% | Retention % (adsorption or retention of the chemicals in the peat) ([3]; listed as glycine): less than zero
Compound: NCC(=O)O [Glycine, glycine]
growth of the pine plants (mean dry weight), ranking of the nitrogen sources [1]: these three preparations are followed by the nutrient mixture that includes glycine | change in growth of the pine plants on charge increase from three to ten millimoles per litre [1]: slight decrease in growth or at least not an increased growth
